Laboratory results from patent US9980943B2, “Methods of treating muscular dystrophy” (BOARD OF REGENTS OF THE NEVADA SYSTEM OF HIGHER EDUCATION, …, priority 2013, dated 2018).

Legend:
Assay type in all cases: cell-based, mouse
[1] = system: α7 integrin (LacZ reporter in α7+/LacZ myotubes); experiment: Myotube α7 integrin FDG assay (Burkin assay in myotubes, 96-well); conditions: myotubes
[2] = system: β-galactosidase in CMV-LacZ C2C12 myotubes; experiment: CMV-LacZ secondary screen in C2C12 myotubes (β-Gal stabilizing assay); conditions: for CMV-LACZ in Myotubes, signal relative to DMSO: C2C12 CMV-LacZ myotubes, fold relative to DMSO; for CMV-LACZ in Myotubes (β-galactosidase activity relative to DMSO): CMV-LacZ C2C12 myotubes, 96-well format
How it was run: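 β-Gal level was the read-out, measured in a clonal C2C12 line expressing LacZ from a CMV promoter. Dose-response curves used six concentrations, 0.5 μM up to 40 μM, with duplicate points.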

[3] = system: α7 integrin (LacZ reporter in α7βgal+/− myoblasts); experiment: Myoblast α7+/LacZ integrin FDG assay (Burkin assay in myoblasts, 96-well); conditions: α7+/LacZ myoblasts, 96-well

| Structure (SMILES) | Burkin Assay in Myotubes, α7 integrin LacZ reporter signal relative to DMSO ([1]; 0.5 uM) | Burkin Assay in Myotubes, α7 integrin LacZ reporter signal relative to DMSO ([1]; 1 uM) | Burkin Assay in Myotubes, α7 integrin LacZ reporter signal relative to DMSO ([1]; 5 uM) | Burkin Assay in Myotubes, α7 integrin LacZ reporter signal relative to DMSO ([1]; 10 uM) | Burkin Assay in Myotubes, α7 integrin LacZ reporter signal relative to DMSO ([1]; 20 uM) | Burkin Assay in Myotubes, α7 integrin LacZ reporter signal relative to DMSO ([1]; 40 uM) | CMV-LACZ in Myotubes, signal relative to DMSO ([2]; 5 uM) | CMV-LACZ in Myotubes, signal relative to DMSO ([2]; 10 uM) | CMV-LACZ in Myotubes, signal relative to DMSO ([2]; 20 uM) | CMV-LACZ in Myotubes, signal relative to DMSO ([2]; 40 uM) | Burkin Assay in Myoblasts, signal relative to DMSO ([3]; 0.5 uM) | Burkin Assay in Myoblasts, signal relative to DMSO ([3]; 1 uM) | Burkin Assay in Myoblasts, signal relative to DMSO ([3]; 5 uM) | Burkin Assay in Myoblasts, signal relative to DMSO ([3]; 10 uM) | Burkin Assay in Myoblasts, signal relative to DMSO ([3]; 20 uM) | Burkin Assay in Myoblasts, signal relative to DMSO ([3]; 40 uM) | Burkin Assay in Myotubes (signal relative to DMSO) ([1]; 0.5 uM) | Burkin Assay in Myotubes (signal relative to DMSO) ([1]; 1 uM) | Burkin Assay in Myotubes (signal relative to DMSO) ([1]; 5 uM) | Burkin Assay in Myotubes (signal relative to DMSO) ([1]; 10 uM) | other results |
| --- | --- | --- | --- | --- | --- | --- | --- | --- | --- | --- | --- | --- | --- | --- | --- | --- | --- | --- | --- | --- | --- |
| COc1ccc(S(=O)(=O)Nc2ccc(S(=O)(=O)Nc3nccs3)cc2)cc1 [MLS001218795-01] | 0.9648 | 0.9363 | 0.9778 | 0.9991 | 0.9463 | 0.9606 | 0.9553 | 1.023 | 1.2115 | 0.989 | 1.024 | 0.9596 | 0.8609 | 0.9116 | 0.9353 | 0.9876 |  |  |  |  |  |
| Cc1cc(NC(=O)CN2C(=O)/C(=C/c3ccccc3F)SC2=S)no1 [MLS001219159-01] |  |  |  |  |  |  | 0.9354 | 0.9316 | 0.9636 | 1.023 |  |  |  |  |  |  | 0.861 | 0.9965 | 0.807 | 1.064 | Burkin Assay in Myotubes (signal relative to DMSO) ([1]; 20 uM): 0.9474; Burkin Assay in Myotubes (signal relative to DMSO) ([1]; 40 uM): 0.9507; Burkin Assay in Myoblasts, value relative to DMSO ([3]; 0.5 uM): 0.9597; Burkin Assay in Myoblasts, value relative to DMSO ([3]; 1 uM): 1.059; Burkin Assay in Myoblasts, value relative to DMSO ([3]; 5 uM): 0.9161; Burkin Assay in Myoblasts, value relative to DMSO ([3]; 10 uM): 0.9644; Burkin Assay in Myoblasts, value relative to DMSO ([3]; 20 uM): 0.9199; Burkin Assay in Myoblasts, value relative to DMSO ([3]; 40 uM): 0.952 |
| Cc1cc(C(=O)Nc2cccc3ccccc23)c(C)o1 [MLS001219345-01] | 0.9416 | 0.9889 | 1.078 | 1.0424 | 0.7146 | 0.9232 | 1.188 | 0.8631 | 1.0075 | 1.0255 | 0.3027 | 1.119 | 1.046 | 1.014 | 0.9807 | 0.9227 |  |  |  |  |  |
| NC(=O)c1nsc(C(=O)N(c2ccccc2)C(C(=O)NCc2ccc(F)cc2)c2ccc(O)cc2)c1N (stereo not shown) [MLS001219621-01] |  |  |  |  |  |  |  |  |  |  |  |  |  |  |  |  | 0.9394 | 0.8603 | 0.8883 | 0.8616 | Burkin Assay in Myotubes (signal relative to DMSO) ([1]; 20 uM): 0.648; Burkin Assay in Myotubes (signal relative to DMSO) ([1]; 40 uM): 0.4537; CMV-LACZ in Myotubes (β-galactosidase activity relative to DMSO) ([2]; 5 uM): 0.9491; CMV-LACZ in Myotubes (β-galactosidase activity relative to DMSO) ([2]; 10 uM): 1.063; CMV-LACZ in Myotubes (β-galactosidase activity relative to DMSO) ([2]; 20 uM): 1.132; CMV-LACZ in Myotubes (β-galactosidase activity relative to DMSO) ([2]; 40 uM): 1.29; Burkin Assay in Myoblasts, value relative to DMSO ([3]; 0.5 uM): 0.8642; Burkin Assay in Myoblasts, value relative to DMSO ([3]; 1 uM): 0.8063; Burkin Assay in Myoblasts, value relative to DMSO ([3]; 5 uM): 0.7249; Burkin Assay in Myoblasts, value relative to DMSO ([3]; 10 uM): 0.7542; Burkin Assay in Myoblasts, value relative to DMSO ([3]; 20 uM): 0.7884; Burkin Assay in Myoblasts, value relative to DMSO ([3]; 40 uM): 0.5423 |
